Converted amounts (≈) assume the structure as drawn. Read-outs that look alike come from different tables or passages of the source.
Test system: S. aureus ATCC 27660
Experiment: MIC, control bacteria (Example 8)
Assay type: cell-based
Method: • Mueller-Hinton Broth in tubes was inoculated with 25 ocular isolates of Staphylococcus aureus fluoroquinolone-susceptible, Staphylococcus aureus fluoroquinolone-resistant, Staphylococcus epidermidis (Coagulase-negative Staphylococcus) fluoroquinolone-susceptible, Staphylococcus epidermidis (Coagulase-negative Staphylococcus) fluoroquinolone-resistant, Pseudomonas aeruginosa and Serratia marcescens, plus two controls (Staphylococcus aureus and E. coli) and incubated at 37° C. overnight on a shaker set at 250 rpm.
Control Bacteria—The two control bacteria (Staphylococcus aureus and E. coli) were treated as above.
Control Bacteria Set #1—this set of control bacteria were treated as the Streptococcus pneumoniae, Streptococcus viridans and Moraxella species (including Moraxella catarrhalis) test isolates above; the control bacteria underwent the same conditions as the test Streptococcus pneumoniae, Streptococcus viridans and Moraxella species (including Moraxella catarrhalis) isolates. This set of control bacteria was to determine whether there was a difference in the MICs by performing the MIC determinations in 2% lysed horse red blood cells with the standard method performed in Mueller-Hinton broth.
Control Bacteria Set #2—the control bacteria were added to 5 ml of Mueller-Hinton Broth without the 2% lysed horse red blood cells to achieve the standard inoculum concentration. This set of control bacteria is the normal control to determine whether the compounds are at the target MICs.
Control Bacteria Set #1—this set of control bacteria were treated as the Haemophilus influenzae test isolates above; the control bacteria underwent the same conditions as the test Haemophilus influenzae isolates. This set of control bacteria is to determine whether there was a difference in the MICs by performing the MIC determinations in HTM broth with the standard method performed in Mueller-Hinton broth.
Control Bacteria Set #2—the control bacteria were added to 5 ml of Mueller-Hinton Broth to achieve the standard inoculum concentration. This set of control bacteria is the normal control to determine whether the compounds are at the target MICs.
Ninety μl of the bacterial suspensions was dispensed in each well from column 1 to column 12. Each bacterial isolate was placed in one row of a 96 well polypropylene plate containing the test agents. The plates were placed on shaker at 15 minutes at room temperature, and then incubated at 37° C. overnight. MICs were determined visually as the lowest concentration of drug that inhibits visible bacterial growth.

Q: What does the source list for `N=C(N)NCCCCC(=O)Nc1cc(C(F)(F)F)cc(NC(=O)c2cnc(C(=O)Nc3cc(C(F)(F)F)cc(NC(=O)CCCCNC(=N)N)c3SCCN)cn2)c1SCCN` [Oligomer 5]?
A: Decrease of activity by use of HTM broth (Control Bacteria S. aureus ATCC 27660): approximately 8 fold; MIC (Control Bacteria Set #1, run with Haemophilus influenzae MIC test, read-out: MIC): 4 mg/L (≈ 4.36 µM); MIC (S. aureus ATCC 27660): 0.78 mg/L (≈ 0.851 µM); MIC (S. aureus ATCC 27660, Control for MIC Test SA-FQR, first batch): 8 mg/L (≈ 8.72 µM); MIC (S. aureus ATCC 27660, Control for MIC Test SA-FQS, first batch): 16 mg/L (≈ 17.4 µM); MIC (S. aureus ATCC 27660, new batches, Control Only 1): 0.25 mg/L (≈ 0.273 µM); MIC (S. aureus ATCC 27660, new batches, Control Only 2): 0.25 mg/L (≈ 0.273 µM); MIC (S. aureus ATCC 27660, new batches, Control Only 3): 0.5 mg/L (≈ 0.545 µM); MIC (S. aureus ATCC 27660, new batches, Control Only 4): 0.5 mg/L (≈ 0.545 µM); MIC (Staphylococcus aureus, ATCC27660, Control Bacteria Set #1, run with Moraxella MIC test, read-out: MIC): 1 mg/L (≈ 1.09 µM); MIC (Staphylococcus aureus, ATCC27660, Control Only 1, read-out: MIC of control bacteria on day of MIC testing): 0.25 mg/L; MIC (Staphylococcus aureus, ATCC27660, Control Only 2, read-out: MIC of control bacteria on day of MIC testing): 0.25 mg/L; MIC (Staphylococcus aureus, ATCC27660, Control Only 3, read-out: MIC of control bacteria on day of MIC testing): 0.5 mg/L; MIC (Staphylococcus aureus, ATCC27660, Control Only 4, read-out: MIC of control bacteria on day of MIC testing): 0.5 mg/L; MIC (Staphylococcus aureus, ATCC27660, S. aureus ATCC 27660, Control Bacteria Set #1 (same conditions as test isolates), run with Streptococcus pneumoniae MIC test, read-out: MIC): 1 mg/L (≈ 1.09 µM); MIC (Staphylococcus aureus, ATCC27660, S. aureus ATCC 27660, Control Bacteria Set #1 (same conditions as test isolates), run with Streptococcus viridans group MIC test, read-out: MIC): 1 mg/L (≈ 1.09 µM); MIC (Staphylococcus aureus, ATCC27660, S. aureus ATCC 27660, Control Bacteria Set #2 (Mueller-Hinton Broth), run with Streptococcus pneumoniae MIC test, read-out: MIC): 2 mg/L (≈ 2.18 µM); MIC (Staphylococcus aureus, ATCC27660, S. aureus ATCC 27660, Control Bacteria Set #2 (Mueller-Hinton Broth), run with Streptococcus viridans group MIC test, read-out: MIC): 1 mg/L (≈ 1.09 µM); MIC (Staphylococcus aureus, ATCC27660, S. aureus ATCC 27660, control bacteria run with Pseudomonas aeruginosa MIC test, read-out: MIC): 0.25 mg/L (≈ 0.273 µM); MIC (Staphylococcus aureus, ATCC27660, S. aureus ATCC 27660, control bacteria run with S. aureus fluoroquinolone-resistant MIC test, read-out: MIC): 8 mg/L (≈ 8.72 µM); MIC (Staphylococcus aureus, ATCC27660, S. aureus ATCC 27660, control bacteria run with S. aureus fluoroquinolone-susceptible MIC test, read-out: MIC): 16 mg/L (≈ 17.4 µM); MIC (Staphylococcus aureus, ATCC27660, S. aureus ATCC 27660, control bacteria run with S. epidermidis fluoroquinolone-resistant MIC test, read-out: MIC): 0.25 mg/L (≈ 0.273 µM); MIC (Staphylococcus aureus, ATCC27660, S. aureus ATCC 27660, control bacteria run with S. epidermidis fluoroquinolone-susceptible MIC test, read-out: MIC): 0.25 mg/L (≈ 0.273 µM); MIC (Staphylococcus aureus, ATCC27660, S. aureus ATCC 27660, control bacteria run with Serratia marcescens MIC test, read-out: MIC): 0.5 mg/L (≈ 0.545 µM); MIC (Staphylococcus aureus, ATCC27660, S. aureus ATCC 27660, MIC previously obtained (target MIC), printed in parentheses, read-out: MIC for Control Bacteria within the parentheses): 0.78 mg/L (≈ 0.851 µM); MIC (Staphylococcus aureus, ATCC27660, S. aureus ATCC27660, read-out: MIC): 0.78 mg/L (≈ 0.851 µM); MIC (Staphylococcus aureus, ATCC27660, control for MIC test HI (Control Bacteria Set #2), read-out: MIC of control bacteria on day of MIC testing): 0.5 mg/L; MIC (Staphylococcus aureus, ATCC27660, control for MIC test MS (Control Bacteria Set #2), read-out: MIC of control bacteria on day of MIC testing): 0.5 mg/L; MIC (Staphylococcus aureus, ATCC27660, control for MIC test PA, read-out: MIC of control bacteria on day of MIC testing): 0.25 mg/L; MIC (Staphylococcus aureus, ATCC27660, control for MIC test SA-FQR, read-out: MIC of control bacteria on day of MIC testing): 8 mg/L; MIC (Staphylococcus aureus, ATCC27660, control for MIC test SA-FQS, read-out: MIC of control bacteria on day of MIC testing): 16 mg/L; MIC (Staphylococcus aureus, ATCC27660, control for MIC test SE-FQR, read-out: MIC of control bacteria on day of MIC testing): 0.25 mg/L; MIC (Staphylococcus aureus, ATCC27660, control for MIC test SE-FQS, read-out: MIC of control bacteria on day of MIC testing): 0.25 mg/L; MIC (Staphylococcus aureus, ATCC27660, control for MIC test SM, read-out: MIC of control bacteria on day of MIC testing): 0.5 mg/L; MIC (Staphylococcus aureus, ATCC27660, control for MIC test SP, read-out: MIC of control bacteria on day of MIC testing): 2 mg/L; MIC (Staphylococcus aureus, ATCC27660, control for MIC test SV, read-out: MIC of control bacteria on day of MIC testing): 1 mg/L; MIC (Staphylococcus aureus, ATCC27660, reference MIC printed in parentheses beside the day's control value, read-out: MIC for Control Bacteria (within the parentheses)): 0.78 mg/L (≈ 0.851 µM)
